Assay results from patent publication US5932584A, “Optically active 2,3-dihydroimidazo(1,2-C) quinazoline derivatives, the preparation and antihypertensive use thereof” (National Science Council, priority 1997, dated 1999).
Read-outs that look alike come from different tables or passages of the source.

Target: α1 -Adrenergic receptor
Test: α1-Adrenergic receptor binding assay ([^3 H] prazosin competition, rat brain cortex membranes)
Protocol: Rat brain cortex membranes were prepared for [^3 H] prazosin or [^3 H] clonidine binding by homogenizing tissues in 0.32 M sucrose buffered with 50 mM Tris buffer (pH 7.4) in a tissue/buffer ratio of 1:10. After the removal of nuclei by centrifugation at 1000×g for 10 min, P2 membranes were pelleted by centrifuging the supernatant at 22,000×g for 20 min. After two periods of centrifugation at 22,000×g and resuspension in fresh buffer, the membrane suspension (about 2 mg/ml protein) was ready for use.
α1 -Adrenergic receptor binding assays (in triplicate) were carried out with 0.2 nM [^3 H] prazosin in a final volume of 1.0 ml of Tris buffer at pH 7.4 for 30 min at room temperature, using […] phentolamine to determine non-specific binding. […] The concentrations of synthetic compounds for competition binding were in the range of 0.1-100 μM. After binding had reached equilibrium, incubations were terminated by collecting the membranes on Whatman GF/B filters; the filters were washed twice with 5 ml of 50 mM Tris buffer (pH 7.4) at 4° C.
[^3 H]prazosin (76.6 Ci/mmol) and [^3 H]clonidine (47.0 Ci/mmol) were purchased from NEN. All other chemicals used were reagent grade and were purchased from Sigma (St. Louis, Mo.).

[1] = preliminary results, read-out: affinity to α1 -adrenoceptor (Ki)
[2] = rat brain cortex membranes, 0.2 nM [^3 H] prazosin, pH 7.4, 30 min, room temperature, read-out: α1 Binding (Ki)

| Compound | Ki [1] [nM] | Ki [2] [nM] |
| --- | --- | --- |
| COc1ccccc1N1CCN(C[C@H]2CN=C3c4ccccc4NC(=O)N32)CC1 [Example 18] | 0.1 | 0.1 |
| COc1ccccc1N1CCN(C[C@@H]2CN=C3c4ccccc4N=C(SC)N32)CC1 [Example 17] | 554 | 554 |
| COc1ccccc1N1CCN(C[C@H]2CN=C3c4ccccc4N=C(SC)N32)CC1 [Example 16] | 1.88 | 1.88 |
| COc1ccccc1N1CCN(C[C@@H]2CN=C3c4ccccc4NC(=O)N32)CC1 [Example 19] |  | 26 |
| COc1ccccc1N1CCN(CC2CN=C3c4ccccc4N=C(SC)N32)CC1 (racemic) [(RS)-I, reference compound] | 3.55 |  |
